What all share (conditions): Compound concentration 1000.0 nM
Test [1] addresses Casein kinase I isoform delta (Homo sapiens) (UniProt P48730).
The target of test [2] is Casein kinase I isoform gamma-3 (Homo sapiens) (UniProt Q9Y6M4).
Test [3] deals with T1, Myotonin-protein kinase (Homo sapiens) (UniProt Q09013).
T1 sequence (whole entry): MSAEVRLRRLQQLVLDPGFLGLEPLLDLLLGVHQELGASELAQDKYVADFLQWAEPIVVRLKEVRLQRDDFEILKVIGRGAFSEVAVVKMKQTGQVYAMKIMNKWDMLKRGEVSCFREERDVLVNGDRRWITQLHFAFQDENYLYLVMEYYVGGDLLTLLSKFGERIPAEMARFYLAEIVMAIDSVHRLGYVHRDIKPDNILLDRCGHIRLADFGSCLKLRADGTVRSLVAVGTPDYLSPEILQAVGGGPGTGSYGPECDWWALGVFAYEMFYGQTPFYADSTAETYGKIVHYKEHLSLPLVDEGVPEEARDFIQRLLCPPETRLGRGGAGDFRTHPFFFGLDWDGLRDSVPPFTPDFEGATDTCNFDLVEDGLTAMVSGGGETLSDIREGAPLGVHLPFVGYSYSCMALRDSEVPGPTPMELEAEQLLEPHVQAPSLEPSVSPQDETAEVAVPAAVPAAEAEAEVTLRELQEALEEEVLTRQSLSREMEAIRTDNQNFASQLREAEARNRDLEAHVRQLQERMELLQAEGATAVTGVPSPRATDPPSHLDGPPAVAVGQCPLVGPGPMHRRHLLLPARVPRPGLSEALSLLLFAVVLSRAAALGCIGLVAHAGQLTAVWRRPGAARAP

For test [4], the target named is T2, Serine/threonine-protein kinase 17A (Homo sapiens) (UniProt Q9UEE5).
T2 sequence (whole entry): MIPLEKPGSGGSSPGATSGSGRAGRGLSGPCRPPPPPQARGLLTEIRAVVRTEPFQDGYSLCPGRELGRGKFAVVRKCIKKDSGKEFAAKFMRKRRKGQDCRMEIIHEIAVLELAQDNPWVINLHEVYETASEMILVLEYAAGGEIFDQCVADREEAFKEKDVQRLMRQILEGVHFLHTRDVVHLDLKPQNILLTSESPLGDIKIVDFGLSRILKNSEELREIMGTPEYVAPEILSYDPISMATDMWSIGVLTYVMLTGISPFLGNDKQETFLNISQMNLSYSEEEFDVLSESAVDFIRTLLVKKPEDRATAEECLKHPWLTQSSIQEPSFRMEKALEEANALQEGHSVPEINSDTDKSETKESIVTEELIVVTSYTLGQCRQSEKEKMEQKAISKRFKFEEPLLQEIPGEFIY

The subject of test [5] is Fibroblast growth factor receptor 3 (Homo sapiens), P22607 [G697C].
For test [6], the target named is T3, Inhibitor of nuclear factor kappa-B kinase subunit alpha (Homo sapiens) (UniProt O15111).
T3 sequence (whole entry): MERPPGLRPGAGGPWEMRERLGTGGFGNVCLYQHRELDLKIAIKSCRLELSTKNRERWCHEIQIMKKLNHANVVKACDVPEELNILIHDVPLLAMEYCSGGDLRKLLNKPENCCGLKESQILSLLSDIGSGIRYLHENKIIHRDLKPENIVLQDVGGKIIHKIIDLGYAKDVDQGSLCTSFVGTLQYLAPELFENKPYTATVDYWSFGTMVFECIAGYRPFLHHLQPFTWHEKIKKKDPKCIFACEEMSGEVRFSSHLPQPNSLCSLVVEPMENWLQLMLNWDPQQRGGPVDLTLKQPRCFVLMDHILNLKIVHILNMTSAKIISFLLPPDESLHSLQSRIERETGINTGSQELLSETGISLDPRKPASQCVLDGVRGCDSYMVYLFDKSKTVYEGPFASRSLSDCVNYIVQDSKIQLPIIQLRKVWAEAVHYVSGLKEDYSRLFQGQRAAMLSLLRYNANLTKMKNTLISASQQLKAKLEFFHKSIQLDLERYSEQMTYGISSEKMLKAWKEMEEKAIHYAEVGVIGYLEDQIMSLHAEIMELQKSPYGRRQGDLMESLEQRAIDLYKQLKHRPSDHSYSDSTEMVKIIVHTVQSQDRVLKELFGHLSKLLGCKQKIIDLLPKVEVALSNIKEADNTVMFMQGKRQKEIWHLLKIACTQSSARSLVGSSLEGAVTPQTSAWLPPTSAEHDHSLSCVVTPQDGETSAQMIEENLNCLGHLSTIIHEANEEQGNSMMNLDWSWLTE

Test [7] relates to Mast/stem cell growth factor receptor Kit (Homo sapiens), P10721 [D816V].
For test [8], the target named is LIM domain kinase 2 (Homo sapiens) (UniProt P53671).
Test [9] has as its system Phosphatidylinositol 4,5-bisphosphate 3-kinase catalytic subunit alpha isoform (Homo sapiens), P42336 [I800L].
Test [10] deals with T4, Mitogen-activated protein kinase kinase kinase 7 (Homo sapiens) (UniProt O43318).
T4 sequence (whole entry): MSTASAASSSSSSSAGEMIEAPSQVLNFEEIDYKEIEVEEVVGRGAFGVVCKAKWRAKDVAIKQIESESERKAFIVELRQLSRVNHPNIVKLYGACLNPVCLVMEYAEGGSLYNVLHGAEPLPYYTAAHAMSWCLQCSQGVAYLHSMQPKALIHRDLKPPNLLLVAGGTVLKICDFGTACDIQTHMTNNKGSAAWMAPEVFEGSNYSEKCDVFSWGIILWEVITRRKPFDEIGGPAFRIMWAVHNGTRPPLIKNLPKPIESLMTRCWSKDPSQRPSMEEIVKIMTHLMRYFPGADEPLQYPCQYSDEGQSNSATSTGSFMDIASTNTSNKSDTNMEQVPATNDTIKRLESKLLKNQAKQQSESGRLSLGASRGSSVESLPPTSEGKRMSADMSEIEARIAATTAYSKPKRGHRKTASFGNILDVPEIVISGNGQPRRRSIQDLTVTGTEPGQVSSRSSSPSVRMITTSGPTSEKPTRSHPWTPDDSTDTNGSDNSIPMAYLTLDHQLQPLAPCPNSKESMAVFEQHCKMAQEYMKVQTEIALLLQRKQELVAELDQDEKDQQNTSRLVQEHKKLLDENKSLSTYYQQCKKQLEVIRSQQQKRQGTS

Test [11] has as its target BDNF/NT-3 growth factors receptor (Homo sapiens) (UniProt Q16620).
In test [12] the target is Serine/threonine-protein kinase WNK3 (Homo sapiens) (UniProt Q9BYP7).
Chain of Serine/threonine-protein kinase WNK3 (Homo sapiens) (Q9BYP7 whole entry): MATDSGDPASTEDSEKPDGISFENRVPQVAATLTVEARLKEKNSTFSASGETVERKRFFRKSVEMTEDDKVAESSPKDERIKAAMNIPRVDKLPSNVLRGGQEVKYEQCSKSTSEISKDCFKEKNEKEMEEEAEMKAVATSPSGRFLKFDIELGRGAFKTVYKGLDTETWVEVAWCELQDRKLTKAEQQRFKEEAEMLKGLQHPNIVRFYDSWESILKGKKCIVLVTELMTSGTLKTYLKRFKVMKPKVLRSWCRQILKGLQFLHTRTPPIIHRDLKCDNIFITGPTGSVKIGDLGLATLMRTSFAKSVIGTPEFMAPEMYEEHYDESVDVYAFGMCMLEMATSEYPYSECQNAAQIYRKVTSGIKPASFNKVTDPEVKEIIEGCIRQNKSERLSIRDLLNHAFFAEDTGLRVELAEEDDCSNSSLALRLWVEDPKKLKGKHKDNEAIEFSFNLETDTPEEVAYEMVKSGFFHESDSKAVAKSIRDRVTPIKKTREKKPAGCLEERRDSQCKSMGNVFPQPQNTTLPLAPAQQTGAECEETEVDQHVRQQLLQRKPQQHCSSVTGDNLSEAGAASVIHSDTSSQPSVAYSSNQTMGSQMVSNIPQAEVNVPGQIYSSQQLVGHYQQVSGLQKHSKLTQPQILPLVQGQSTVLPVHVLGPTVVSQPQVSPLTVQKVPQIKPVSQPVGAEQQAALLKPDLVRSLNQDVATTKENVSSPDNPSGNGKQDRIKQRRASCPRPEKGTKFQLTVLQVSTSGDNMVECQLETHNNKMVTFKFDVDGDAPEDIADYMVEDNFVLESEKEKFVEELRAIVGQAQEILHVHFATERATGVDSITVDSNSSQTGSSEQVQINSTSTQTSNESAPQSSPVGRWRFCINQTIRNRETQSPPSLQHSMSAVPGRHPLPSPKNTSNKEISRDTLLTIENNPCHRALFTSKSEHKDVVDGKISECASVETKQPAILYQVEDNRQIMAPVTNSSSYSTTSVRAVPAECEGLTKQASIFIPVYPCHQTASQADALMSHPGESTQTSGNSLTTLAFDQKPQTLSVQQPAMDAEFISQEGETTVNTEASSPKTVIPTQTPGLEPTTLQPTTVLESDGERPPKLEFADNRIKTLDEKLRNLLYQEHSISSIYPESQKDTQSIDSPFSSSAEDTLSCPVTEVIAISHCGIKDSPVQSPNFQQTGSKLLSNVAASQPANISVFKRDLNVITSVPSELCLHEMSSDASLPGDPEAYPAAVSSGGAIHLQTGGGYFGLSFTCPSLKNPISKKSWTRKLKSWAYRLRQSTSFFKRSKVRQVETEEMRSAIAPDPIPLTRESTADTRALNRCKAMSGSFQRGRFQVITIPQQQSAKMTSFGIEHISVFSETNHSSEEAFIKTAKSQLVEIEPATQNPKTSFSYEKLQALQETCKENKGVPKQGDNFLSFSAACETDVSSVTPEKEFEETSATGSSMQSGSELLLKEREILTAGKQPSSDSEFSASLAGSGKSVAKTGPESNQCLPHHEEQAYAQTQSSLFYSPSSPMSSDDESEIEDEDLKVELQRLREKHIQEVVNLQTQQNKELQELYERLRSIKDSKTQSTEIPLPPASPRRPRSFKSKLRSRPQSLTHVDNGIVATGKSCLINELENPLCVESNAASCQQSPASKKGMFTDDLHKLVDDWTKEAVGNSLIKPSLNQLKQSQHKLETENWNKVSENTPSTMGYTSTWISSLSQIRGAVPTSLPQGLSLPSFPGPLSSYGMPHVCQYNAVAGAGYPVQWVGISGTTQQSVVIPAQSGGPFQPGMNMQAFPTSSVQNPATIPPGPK
The target in test [13] is Mitogen-activated protein kinase kinase kinase 19 (Homo sapiens) (UniProt Q56UN5).
Chain of Mitogen-activated protein kinase kinase kinase 19 (Homo sapiens) (Q56UN5 whole entry): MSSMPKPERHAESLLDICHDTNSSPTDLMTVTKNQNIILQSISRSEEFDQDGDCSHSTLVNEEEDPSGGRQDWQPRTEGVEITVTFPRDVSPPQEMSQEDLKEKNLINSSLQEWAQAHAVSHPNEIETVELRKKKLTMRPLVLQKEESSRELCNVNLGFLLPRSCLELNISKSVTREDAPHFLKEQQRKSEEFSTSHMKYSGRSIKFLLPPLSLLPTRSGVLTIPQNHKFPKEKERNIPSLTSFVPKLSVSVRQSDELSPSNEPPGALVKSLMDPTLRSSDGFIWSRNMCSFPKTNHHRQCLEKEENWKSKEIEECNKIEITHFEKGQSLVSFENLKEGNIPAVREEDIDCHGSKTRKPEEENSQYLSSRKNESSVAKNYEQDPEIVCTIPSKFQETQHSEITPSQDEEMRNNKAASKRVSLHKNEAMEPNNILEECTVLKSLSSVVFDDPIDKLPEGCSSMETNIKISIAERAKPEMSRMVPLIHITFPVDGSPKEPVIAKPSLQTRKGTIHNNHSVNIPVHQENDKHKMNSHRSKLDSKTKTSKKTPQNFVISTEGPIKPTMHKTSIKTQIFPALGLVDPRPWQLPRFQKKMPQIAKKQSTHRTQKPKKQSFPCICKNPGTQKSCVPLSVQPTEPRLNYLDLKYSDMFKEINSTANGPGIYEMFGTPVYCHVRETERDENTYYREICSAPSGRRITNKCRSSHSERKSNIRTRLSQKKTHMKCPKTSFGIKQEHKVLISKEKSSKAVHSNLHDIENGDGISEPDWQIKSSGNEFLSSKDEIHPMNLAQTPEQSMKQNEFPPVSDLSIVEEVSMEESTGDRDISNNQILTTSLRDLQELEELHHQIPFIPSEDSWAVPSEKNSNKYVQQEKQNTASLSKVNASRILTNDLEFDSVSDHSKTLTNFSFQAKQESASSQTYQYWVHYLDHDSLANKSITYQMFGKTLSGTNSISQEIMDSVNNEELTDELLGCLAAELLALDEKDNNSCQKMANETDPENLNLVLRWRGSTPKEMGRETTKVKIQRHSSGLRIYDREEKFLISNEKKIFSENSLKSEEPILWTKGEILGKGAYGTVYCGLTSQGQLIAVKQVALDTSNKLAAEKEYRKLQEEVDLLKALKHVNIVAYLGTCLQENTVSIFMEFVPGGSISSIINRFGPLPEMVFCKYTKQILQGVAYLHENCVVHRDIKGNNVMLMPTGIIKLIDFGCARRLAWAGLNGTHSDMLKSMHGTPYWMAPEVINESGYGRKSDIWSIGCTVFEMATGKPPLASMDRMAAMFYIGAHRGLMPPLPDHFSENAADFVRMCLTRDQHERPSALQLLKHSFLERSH

2 compounds from ChEMBL document CHEMBL4507276 (2021) can be followed below.

Chain of Casein kinase I isoform delta (Homo sapiens) (P48730 whole entry, looked up, canonical isoform): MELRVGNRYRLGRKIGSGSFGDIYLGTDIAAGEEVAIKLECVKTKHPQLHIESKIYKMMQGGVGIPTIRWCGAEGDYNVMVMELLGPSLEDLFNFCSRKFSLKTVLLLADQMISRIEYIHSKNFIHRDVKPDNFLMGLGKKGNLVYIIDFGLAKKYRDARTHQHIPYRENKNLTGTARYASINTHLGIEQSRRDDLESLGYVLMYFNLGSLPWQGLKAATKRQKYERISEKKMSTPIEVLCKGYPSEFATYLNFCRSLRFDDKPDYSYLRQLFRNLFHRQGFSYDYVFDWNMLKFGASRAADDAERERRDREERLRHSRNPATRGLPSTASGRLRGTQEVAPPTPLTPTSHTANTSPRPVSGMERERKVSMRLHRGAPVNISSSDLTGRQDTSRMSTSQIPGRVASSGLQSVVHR
Chain of Phosphatidylinositol 4,5-bisphosphate 3-kinase catalytic subunit alpha isoform (Homo sapiens), P42336 [I800L] (P42336 whole entry I800L, canonical isoform): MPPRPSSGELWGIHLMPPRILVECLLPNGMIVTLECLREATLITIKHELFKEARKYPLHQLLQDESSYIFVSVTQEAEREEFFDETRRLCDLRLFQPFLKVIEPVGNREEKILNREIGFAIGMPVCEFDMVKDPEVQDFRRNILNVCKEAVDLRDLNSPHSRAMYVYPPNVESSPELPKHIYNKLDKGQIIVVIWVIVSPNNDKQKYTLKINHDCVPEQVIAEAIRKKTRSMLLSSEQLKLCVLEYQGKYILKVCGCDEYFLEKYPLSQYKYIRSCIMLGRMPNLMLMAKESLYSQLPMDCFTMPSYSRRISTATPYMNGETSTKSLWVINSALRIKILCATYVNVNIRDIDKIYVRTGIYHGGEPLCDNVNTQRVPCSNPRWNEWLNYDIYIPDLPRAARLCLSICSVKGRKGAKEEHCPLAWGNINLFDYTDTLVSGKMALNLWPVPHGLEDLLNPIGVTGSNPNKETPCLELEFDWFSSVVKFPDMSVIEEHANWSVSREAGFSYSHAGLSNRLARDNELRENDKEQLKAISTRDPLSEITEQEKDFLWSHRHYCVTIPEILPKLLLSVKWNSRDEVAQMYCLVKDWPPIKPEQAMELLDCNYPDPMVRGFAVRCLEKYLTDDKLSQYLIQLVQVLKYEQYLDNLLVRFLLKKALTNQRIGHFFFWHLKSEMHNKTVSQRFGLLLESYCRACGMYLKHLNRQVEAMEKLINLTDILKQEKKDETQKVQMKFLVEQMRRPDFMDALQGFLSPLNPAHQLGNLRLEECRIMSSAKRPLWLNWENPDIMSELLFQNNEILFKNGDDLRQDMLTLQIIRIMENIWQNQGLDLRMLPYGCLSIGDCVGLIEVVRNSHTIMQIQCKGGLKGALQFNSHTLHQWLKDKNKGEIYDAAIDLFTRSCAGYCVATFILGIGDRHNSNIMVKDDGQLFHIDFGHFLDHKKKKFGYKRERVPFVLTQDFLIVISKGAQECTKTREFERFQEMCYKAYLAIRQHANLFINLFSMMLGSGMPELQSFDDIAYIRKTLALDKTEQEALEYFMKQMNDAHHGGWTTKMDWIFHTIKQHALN
Chain of Casein kinase I isoform gamma-3 (Homo sapiens) (Q9Y6M4 whole entry, looked up, canonical isoform): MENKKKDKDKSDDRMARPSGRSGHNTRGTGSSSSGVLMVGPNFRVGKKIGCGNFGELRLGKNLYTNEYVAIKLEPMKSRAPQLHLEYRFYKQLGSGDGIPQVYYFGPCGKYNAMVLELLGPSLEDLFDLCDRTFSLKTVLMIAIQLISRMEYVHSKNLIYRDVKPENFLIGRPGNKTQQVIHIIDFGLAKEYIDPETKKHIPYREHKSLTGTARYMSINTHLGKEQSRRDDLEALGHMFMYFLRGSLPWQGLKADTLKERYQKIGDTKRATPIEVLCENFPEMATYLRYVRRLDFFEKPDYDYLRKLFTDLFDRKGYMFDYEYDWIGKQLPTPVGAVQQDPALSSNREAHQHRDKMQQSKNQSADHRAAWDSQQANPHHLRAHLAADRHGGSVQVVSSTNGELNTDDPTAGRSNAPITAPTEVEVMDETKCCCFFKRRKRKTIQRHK

As for `CN(C)C(=O)Cn1cc(-c2nc(C3(c4ccc(-c5cnc(N)nc5)cc4)CC3)no2)cn1` [BI 0153], the residual activity in [1] is 100%; in test [2], 100%; in test [3], 82%; in [4], 100%; in test [5], 100%; in test [6], 100%. Besides, the residual activity was 92% in test [7]; 85% in [8]; 91% in [9]; 72% in test [10]; 100% in [11]; 87% in test [12]. In addition, in [13], the residual activity was 73%.
Take `CN(C)C(=O)Cn1cc(-c2nc([C@@](C)(c3ccc(-c4cnc(N)nc4)cc3)C3CC3)no2)cn1` [BI 665915]: the residual activity in test [1] is 96%; in [2] it was 95%; in test [3] it was 100%; in test [4], 100%; in [5] it was 89%; in [6], 0%. The residual activity is 94% in [7]; 85% in test [8]; 54% in [9]; 50% in test [10]; 81% in test [11]; 76% in test [12]. The residual activity in [13] is 61%.
